Measurements reported in patent US20240000899A1, “THERAPEUTIC USEFUL AGAINST ANTIMICROBIAL RESISTANT AGENTS” (priority 2022, published 2024).

Columns and labels:
[1] = 4.0% w/v concentration; cited from earlier work
[2] = aerosolized, pH range of 1.5 to 2.0
From the text: Additionally, the low pH acid formulation needs to provide no or minimum deleterious effect to host tissues.

human coronavirus = settings: therapeutic concentration (~1.7 pH), in vitro suspension tests
[3] = system: HepG2 (human liver) cell culture; test: Modified cytotoxicity protocol: residual anions of neutralized acid formulations; format: cell-based; settings: for Cytotoxicity of residual anions, conclusion in words: pH 1.5
Experimental: Purpose: A modified cytotoxicity protocol was developed focusing on the cytotoxicity of the residual anions of the acid formulations. Twenty different acids formulations were tested, each in the range of 1.95 to 1.5 pH. Each formulation was diluted with distilled water to hydronium concentrations of 11.22 mM (pH 1.95), […] (pH 1.85), 19.95 mM (pH 1.70), 25.12 mM (pH 1.60), and 31.62 mM (pH 1.50). It was then titrated with NaOH to 7.4 pH and applied to HepG2 (human liver) cell culture in triplicate replicates.

[4] = system: Staphylococcus aureus ATCC 6538; test: Modified ASTM E2315 test of low pH therapeutic with AMPs, acid neutralized after one minute; format: cell-based
From the text: Since the reaction speed of the two different MOAs are different, a modified test protocol was developed, which is summarized below. • a. […] Heretofore, it has been believed that AMPs are unstable in low pH environments. Mixture of dry powder immediately prior to use is believed to address concerns regarding minimization of in vitro stability. • b. The prepared AMP solution was then mixed with the bacteria containing media. After one minute the acid solution was neutralized. This simulates the short antimicrobial period for the elevated proton concentration in vivo. The bacteria population was measured to determine efficacy after one minute. • c. The AMPs retained in the solution are not expected to stop their antimicrobial activity after acid neutralization, so a second bacteria population measurement was made after 24 hours. [table]

For `OB(O)O` [Boric acid], the pH [1] is given as 4.8-5.0.
In the case of `O=S(=O)(O)O` [sulfuric acid], the “Harm to host respiratory tissues in vivo” value [2] is reported as “not harmful”, the “Time to inactivating and/or reducing concentration of human coronavirus” value (human coronavirus) is reported as no more than 1 min and the Cytotoxicity (mouse fibroblast cells) is reported as “no cytotoxicity”.
In the case of Hydroxyacetic + HCl [Example 15], the “% Viability @ pH 1.9” value [3] is reported as 117%.
In the case of Hydroxyacetic +. Sulfuric [Example 8], the “% Viability @ pH 1.9” value [3] is reported as 72.7%.
For Isoacorbic + sulfuric [Example 17], the “% Viability @ pH 1.9” value [3] was 89.3%.
In the case of Isoascorbic + HCl [Example 18], the “Cytotoxicity of residual anions, conclusion in words” value [3] is reported as “least toxic” and the “% Viability @ pH 1.9” value [3] is reported as 104%.
For LL-37 [Example 38, reference compound], the “1-min Efficacy (log)” value ([4]; bacteria population after one minute, then acid neutralized, no soiling, single-replicant) was 4.15 log, the “Efficacy on S. aureus, conclusion in words” value ([4]; comparison of Table 3 examples) was “highly effective” and the “24-hour Efficacy (log)” value ([4]; second bacteria population measurement after 24 hours, acid neutralized after one minute) was greater than 6.45 log.
For Sulfuric [Example 3], the “Cytotoxicity of residual anions, conclusion in words” value [3] was “least toxic” and the “% Viability @ pH 1.9” value [3] was 140%.
